1 compound from patent US5236955A, “Anti-fungal agent” (Washington University, priority 1992, dated 1993) can be followed below.

Read-outs that look alike come from different tables or passages of the source.

For test [1], the system named is C. neoformans. In words: Growth of C. neoformans cultures (absorbance at 600 nm). The format is cell-based, Cryptococcus neoformans. To be noted: single 300 μM dose, exponential phase, 30° C., SAB, up to 24 h. As for the experimental part: (§1) Panel A, survey of the effects of several oxatetradecanoic acids on the growth of C. neoformans. A culture of C. neoformans was grown at 30° C. in SAB media to midlog phase (A600 ~0.5). A single dose of fatty acid was then added to subcultures (final concentration=300 μM). EtOH(0.1%) was used as a negative control. Amphotericin B (AmB) was added (final concentraton=55 μM) as a positive control. Aliquots were withdrawn from the subcultures 0, 0.5, 2, 4, 7, 21, and 24 h after these additions and then absorbance at 600 nm was measured. All assays were done in duplicate or triplicate. A representative test is shown. Panel B, survey of the effects of oxatetradecanoic acids, dioxatetradecanoic acids and oxatridecanoic acids on the viability of C. neoformans. Fatty acid analog was added to the cultures as in Panel A. Aliquots were withdrawn 0.5, 2, 4, 7 or 8, and 24 h later and plated on SAB-agar at various dilutions to determine the number of viable organisms/ml culture. All assays were done in duplicate. Data from a representative test are expressed as the ratio of viable cells in treated cultures relative to a control culture that received 0.1% EtOH. A positive control culture received a single dose of amphotericin B (55 μM); Panel C, dose-dependent reduction in the viability of C. neoformans after addition of 4-oxatetradecanoic acid (O4) to cultures during log-phase growth at 30° C. in SAB. A single dose of the analog was given at T=0 h in the amount indicated and aliquots of the culture were withdrawn at various times to determine the number of viable cells. All assays were done in triplicate. A representative test is shown.
Saccharomyces cerevisiae strain YM2061 (MATa ura3-52 his3Δ200 ade2-101 lys2-801 met LEU2::pRY181 can1; Flick and Johnston, Mol. Cell. Biol. 10, 4757-4769 (1990), Candida albicans strain B311 (obtained from the American Type Tissue Culture, Rockville, Md.), or Cryptococcus neoformans strain L210425 (a clinical isolate that is part of the permanent culture collection of the Mycology Laboratory, Barnes Hospital, St. Louis, Mo.) were grown overnight at 30 C. The S. cerevisiae strain was incubated in YPD medium (1% bacto-yeast extract, Gibco, Long Island, N.Y.), 2% bacto-peptone (Gibco), 2% dextrose). The C. albicans and C. neoformans strains were grown in Sabouraud's media (SAB; 2% (w/v) dextrose, 1% bacto-peptone). The following morning the cultures were diluted into fresh medium to the desired density at 600 nm (early log phase), and subsequently incubated in a rotary shaker at 30° C. until an A600 =0.5 (mid log phase) was achieved. The culture was then divided into 10 ml aliquots. A single 10 μl aliquot of a stock solution of fatty acid analog (prepared in various concentrations using absolute ethanol) was added to the culture so that the final concentration of the compound was 100-500 μM (T=0). Ten microliters of ethanol alone was added to one 10 ml culture which served as the negative control. […] Cell viability was determined at each of these time points by (i) serially diluting the aliquot in 0.15M NaCl and counting cell number in a hemocytometer and (ii) plating 2-3 of the dilutions in triplicate onto plates of SAB/agar (C. albicans and C. neoformans) or YPD/agar (S. cerevisiae). […] The data were expressed as the ratio of viable cells/ml in the fatty acid analog treated subculture to the number of viable cells/ml in the negative (ethanol) control culture. […]

The subject of test [2] is C. neoformans. In words: Viability of C. neoformans (viable cells relative to EtOH control culture). The format is cell-based, Cryptococcus neoformans. To be noted: for log reduction at 300 µM: Cryptococcus neoformans. How it is done: as §1
Saccharomyces cerevisiae strain YM2061 (MATa ura3-52 his3Δ200 ade2-101 lys2-801 met LEU2::pRY181 can1; Flick and Johnston, Mol. Cell. Biol. 10, 4757-4769 (1990), Candida albicans strain B311 (obtained from the American Type Tissue Culture, Rockville, Md.), or Cryptococcus neoformans strain L210425 (a clinical isolate that is part of the permanent culture collection of the Mycology Laboratory, Barnes Hospital, St. Louis, Mo.) were grown overnight at 30 C. The S. cerevisiae strain was incubated in YPD medium (1% bacto-yeast extract, Gibco, Long Island, N.Y.), 2% bacto-peptone (Gibco), 2% dextrose). The C. albicans and C. neoformans strains were grown in Sabouraud's media (SAB; 2% (w/v) dextrose, 1% bacto-peptone). The following morning the cultures were diluted into fresh medium to the desired density at 600 nm (early log phase), and subsequently incubated in a rotary shaker at 30° C. until an A600 =0.5 (mid log phase) was achieved. The culture was then divided into 10 ml aliquots. A single 10 μl aliquot of a stock solution of fatty acid analog (prepared in various concentrations using absolute ethanol) was added to the culture so that the final concentration of the compound was 100-500 μM (T=0). Ten microliters of ethanol alone was added to one 10 ml culture which served as the negative control. Amphotericin B (AmB; in the form of Fungizone, Squibb) was added (final concentration=55 μM) to another culture which served as the positive control. At T=0 and 0.5-24 h after addition of fatty acid analog to the subcultures, an aliquot was removed for determining the density of the subculture at 600 nm. Cell viability was determined at each of these time points by (i) serially diluting the aliquot in 0.15M NaCl and counting cell number in a hemocytometer and (ii) plating 2-3 of the dilutions in triplicate onto plates of SAB/agar (C. albicans and C. neoformans) or YPD/agar (S. cerevisiae). These plates were subsequently incubated at 30° C. for 24-48 hr to allow for the growth of colonies. The data were expressed as the ratio of viable cells/ml in the fatty acid analog treated subculture to the number of viable cells/ml in the negative (ethanol) control culture.

Test [3] concerns C. albicans N-myristoylproteins. As to the kind of experiment: Metabolic labeling of cellular N-myristoylproteins with tritiated fatty acids. The format is cell-based. To be noted: tritiated analog, 1 h, 30° C. How it is done: (§2) Cells were labeled for 1 h with fatty acids of equal specific activity. Total cellular proteins were reduced, denatured and subjected to SDS-PAGE. Gels were treated overnight with 1 N hydrocylamine (pH 10) at room temperature followed by EN^3 HANCE. Fluorography was performed at -80° C. The exposure time for all gels was identical (2 weeks) as was the total amount of cellular protein added to each lane (100 μg).
(§3) Analysis of the incorporation of exogenous fatty acids into cellular proteins--Cultures of S. cerevisiae YM2061, C. albicans B311, and C. neoformans L210425 were grown overnight at 30° C. in YPD or SAB broth. In the morning, C. albicans and C. neoformans were diluted to an A600 =0.6. All cultures were subsequently shaken at 30° C. until they achieved an A600 =1.2. A 5 ml aliquot of each culture was then incubated at 30° C. with 100 μCi/ml of either [9,10(n)^3 H]myristate (NEN Research Products, Dupont, Boston, Mass.); [6,7(n)^3 H]4-oxatetradecanoate; [9,10(n)^3 H]6-oxatetradecanoate;[9,10(n)^3 H]11-oxatetradecanoate; or [10,11(n)^3 H]13-oxatetradecanoate (the final specific activity of all tritiated fatty acids=30 Ci/mmol, their final concentration=3.3 μM). The cultures were then chilled on ice for 5 min and the cells harvested by centrifugation at 4000×g for 5 min. The pellet was washed by gentle vortexing in 1 ml of phosphate buffered saline (PBS, maintained at 4° C.). The yeast cells were then pelleted by centrifugation (as above) and broken open by vortexing with 500 μm glass beads in a 200 μl solution containing 240 mM Tris-HCl, pH 6.8, 2% SDS, 0.4% β-mercaptoethanol, 0.002% bromophenol blue, and 10% glycerol. The solution was then boiled for 5 min and cellular debris was removed by centrifugation at 12,000×g for 10 min. One hundred μg [Lowry et al., J. Biol. Chem. 193, 265-275 (1951)] of lysate protein from each sample was subjected to denaturation, reduction and electrophoresis through 12% polyacrylamide gels containing 0.1% SDS [Laemmli, Nature 227, 680-685 (1970)]. Duplicate gels were incubated overnight with 1M Tris, pH 7.4, or 1N hydroxylamine, pH 10. Fluorography was performed by treating gels with EN^3 HANCE (NEN Research Products, Dupont) and, following drying, exposing them to Kodak XAR film at -80° C.

The test system of test [4] is C. neoformans N-myristoylproteins. Described as above. The format is cell-based. To be noted: tritiated analog, 1 h, 30° C. As for the experimental part:
as §2, §3

Test [5] deals with S. cerevisiae N-myristoylproteins. The test is described as above. It counts as cell-based. The note with it: tritiated analog, 1 h, 30° C. As for the experimental part: as §2, §3

Take `CCCCCCCCCCOCCC(=O)O` [O4, 4-oxatetradecanoic acid]: the “effect on growth of C. neoformans, as determined by optical density” value in the test on C. neoformans [1] is “growth arrest equivalent to that observed with 55 μM amphotericin B”. Besides, in the test with C. neoformans [2] (300 μM single dose), the “time needed to produce the decrease in viable cells” value is reported as at most 1 h. The “fungicidal / fungistatic effect on C. neoformans” value in the test with C. neoformans [2] (300 μM single dose, screening assay) is “fungicidal”. The log reduction at 300 µM in the test on C. neoformans [2] (300 μM single dose, relative to 0.1% EtOH control, read-out: decrease in viable cells (converted)) is 4. The log reduction at 300 µM in the test with C. neoformans [2] (300 μM, between 1 and 7 h after treatment, read-out: further reductions in viable cell number) is under 1. For the same compound, in the test on C. neoformans [2] (between 8 and 24 hr after single dose), the “cell number after single dose” value is reported as “gradual increase in cell number”. Also, the “dose dependence of fungicidal activity” value in the test on C. neoformans [2] (four doses, 100-300 μM) is on record as “progressive reduction of viable cell number”. Moreover, the “labeling of C. albicans N-myristoylproteins versus [3H]myristate” value in test [3] is “more intense labeling”. Moreover, the “labeling of C. neoformans N-myristoylproteins versus [3H]myristate” value in test [4] was “comparable labeling”. In test [5], the “incorporation into the 55 kDa Gpal polypeptide” value is “is incorporated”, the “labeling of S. cerevisiae N-myristoylproteins versus [3H]myristate” value is “more intense labeling” and the “labeling of the 20 kDa Arfs” value is “comparable intensity”.
